Assays:
[1] = test system: HUVEC, HeLa, 293 and Jurkat cells; assay: Transduction of fusion protein across cell membrane, β-galactosidase staining and microscopy; format: cell-based; settings: 0.5 μM, 30 min, 37° C., HeLa, 293, Jurkat cells
Procedure: HUVEC (ATCC:CRL-1730) (2×10^5), HeLa (ATCC:CCL-2) (2×10^5), and 293 (ATCC:CRL-1573) (2×10^5), which were incubated in 10% FBS (Fetal Bovine Serum) of DMEM, were respectively transferred to Lab-tek II chamber slides. Jurkat cells (ATCC:CRL-10915) (2×10^5) incubated in 10% FBS RPMI were transferred to poly-L-lysin coated slide. Each of the slides was treated with the purified 0.5 μM of Sim-2-β-galactosidase for 30 min at 37° C. in 5% CO2 incubator. And the supernatants were removed from the slides. The incubation mixtures were washed using ice-cold PBS four times and then were solidified with 2% formaldehyde solution for 10 min. After removing the solidified solutions, the mixtures were washed again using ice-cold PBS four times. Subsequently, the respective mixtures were treated with 700 μl of β-galactosidase staining solution (Roche. Co.) for 45 min at 37° C. in 5% CO2 incubator. Following the staining, the mixtures were washed with ice-cold PBS four times after removing the supernatants. Next, the mixtures were mounted with 70% glycerol on the microscope slides.

Jurkat T cells = assay: Transduction of insulin fusion proteins, detected using mAb to insulin; format: cell-based; settings: detected with mAb to insulin
Text: A fusion protein of Sim-2 BTM and biologically active functional regulatory protein, which was expressed and purified from bacteria, was reformed so as to have natural folding structure and functions. Specifically, the fusion protein isolated and purified from bacteria was transferred again into CHO (Chinese hamster ovary) cells, and then the fusion protein, which had complete folding structure and functions found in natural state, was isolated and purified. As for purified 2 (two) types of fusion proteins, biological activity regulating capabilities were examined. For this examination, an expression vector pSim-2-insulin was designed in order to prepare fusion protein between Sim-2 BTM and human insulin. In order to make this expression vector, a 5′ primer of SEQ. ID No.:17 comprising nucleic acid sequence of Xba I restriction enzyme, nucleic acid sequence of Sim-2 BTM and N-terminal nucleic acid sequence of human insulin, and a 3′ primer of SEQ. ID No.:18 comprising nucleic acid sequence of Hind m and C-terminal nucleic acid sequence of human insulin were prepared. Then, PCR amplification was carried out using human pancreas beta cells prepared in our laboratory, as a template, and using the primers above mentioned. […] Following the treatment, the transduction level of insulin into the cells was detected using mAb to the insulin and was compared.

[2] = test system: Streptozotocin-Induced diabetic mice; assay: Blood glucose level lowering in Streptozotocin-Induced diabetic mice; format: in vivo; settings: IP injection (1-10 mM)
Procedure: Blood glucose level lowering was examined using Sim-2-insulin and Sim-2-insulin-PR in the Example 13 with Streptozotocin-Induced diabetic mice. After 3 (three) days of abstinence, STZ (Sigma Chemical Co, St Louis, USA) (60 mg/kg) were […]. Insulin dependent diabetic mice were defined having 20 mmol/L or more blood glucose level together with other diabetic syndrome such as polyurea etc. All the in vivo studies were carried out after 2 weeks from the induction of diabetes. Recombinant insulin alone, Sim-2-insulin and Sim-2-insulin-PR in the Example 13 were, respectively, administered to the mice by IP injection (1-10 mM), and the blood glucose levels in the mice were monitored. In order to analyze the level of blood glucose, about 0.2 ml of blood was collected from each of the mice after anesthetizing them, and then the blood was subject to centrifuge at 13,000 rpm for 3 min. Next, about […] of serum was added to 1.5 ml of glucose kit agent (BiosystemSA, Barcelona, Spain) and the mixture was incubated at 37° C. for 10 min in water-bath. The level of blood glucose was detected with blood glucose analyzer (Quik-Lab, Ames, Miles Inc. Elkart, Ind., USA).

Substance | transduction across the cell membranes (β-galactosidase staining) [1] | transduction level of insulin into Jurkat T cells (Jurkat T cells) | blood glucose level, After administration ([2]; after administration) | blood glucose level, Before administration ([2]; before administration) | lowering of blood glucose level ([2]; from Table 3) [%]
β-gal: β-galactosidase reporter protein not fused to Sim-2 | not transduced at all |  |  |  | 
Recombinant insulin: recombinant insulin not fused to Sim-2 BTM |  | almost none | 2320 | 5600 | 50

Source: patent US7354737B2, “Biomolecule transduction motif Sim-2-BTM and the use thereof” (ForHumanTech Co., Ltd., priority 2002, dated 2008)
